Experimental data published in patent publication US20220017833A1, “Methods and Compositions for Scavenging Sulfides from Hydrocarbon Fluids and Aqueous Streams” (Nexgen Oilfield Chemicals, LLC, priority 2019, published 2022).

How the values were obtained:
[1] = Long Reaction Time Capacity Test; details: 20 g test
From the text: Referring now to FIG. 1, therein is schematically depicted a sulfide scavenger testing system 100 comprising a gas source 2, a flow regulator 4, gas treatment vessel 6, and a sulfide measurement device 8. In one testing embodiment, gas (not shown) is flowed from gas source 2 via gas feed piping 10 into flow regulator 4, which regulates gas flow to gas treatment vessel 6 via regulated gas feed piping 12. The regulated gas flows into gas treatment vessel 6 via a bottom inlet 14 thereof, where it comes into contact with a volume of liquid 16 comprising a sulfide scavenger system (not separately labeled). The gas, having been treated by the liquid, flows out of a top end 18 of gas treatment vessel 6 and flows into sulfide measurement device 8 via treated gas outlet piping 20.
In one embodiment, the gas contained in gas source 2 consists substantially of about 15% H2S, and about 3% CO2, with the remainder being Methane. In one embodiment, gas flow from the flow regulator 4 is controlled such that the gas is flowed into the gas treatment vessel 6 at a flow rate of 100 mL/min. up to 500 mL/min. In one embodiment, a gas sparging device, such as a fine pore frit (not shown), is utilized to better distribute the gas into the scavenger liquid. In one embodiment, the gas treatment vessel 6 contains about 20 g of a liquid H2S scavenger, such as one or more diaminols/diaminacetals in a chemical system as described above. In one aspect, to the extent possible, H2S and/or CO2 are scavenged from the gas by the scavenger and the treated (“sweet”) gas exits top end 18 of treatment vessel 6. In one embodiment, sulfide measurement device 8 monitors the concentration of H2S leaving treatment vessel 6. in the gas phase. In other embodiments (not shown), a CO2 measurement device may be similarly employed to monitor the concentration of CO2 leaving treatment vessel 6 in the gas phase.
In one embodiment, gas is flowed through sulfide scavenger testing system 100 until the outlet H2S concentration reaches a 4,000 ppm target, at which point the test is concluded. This relative time duration before the target is reached is used to compare H2S scavenger capacity given the kinetics of each sulfide scavenger system. The longer the duration, the better the capacity.
In this test, methane containing 15% H2S and 3% CO2 by weight is sparged via a fine pore frit (not shown) at 100 mL/min through a column of 20 g of scavenger solution (See FIG. 1). The fine bubbles produced rise slowly, providing plenty of time, plenty of surface area, and a short path through which the H2S must diffuse to the scavenger in the liquid 16. Detector 8 on the outlet line 20 is used to measure H2S concentration in the exiting gas. The times to first detection (FD), at a threshold of 15 ppm, and to complete breakthrough (BT), at the detector saturation of 4000 ppm (0.4%), are recorded. This test is designed to measure the effective scavenging capacity in applications with long contact times.
Note that the true total capacity of a scavenger with infinite time to react is simply equal to the stoichiometry of the reaction—the moles of H2S consumable per mole of scavenging molecule, which can be calculated. This Long Reaction Time Capacity measurement falls short of that ultimate stoichiometric capacity and so is still reaction rate dependent, just less so than the Short Reaction Time Capacity Test.

[2] = operational testing in a natural gas production facility
Method: In operational testing in a natural gas production facility, both an anhydrous glyoxy isopropyl aminacetal (GIDAc) scavenging system and an aqueous glyoxy isopropyl diaminol (GIDA) scavenging system were tested in comparison with an industry standard triazine-based scavenger.

[3] = Storage Capacity Loss Test; type: physicochemical; details: for Min to BT / Min to FD: Short Reaction Time Capacity Test, diaminol in water + 10.00 g MeOH, 20 g test
Method: This test compares the scavenging capacity after 24 hours of storage of the scavenger system at room temperature to that after 72 hours of storage thereof at room temperature. In one embodiment, a sample of the scavenger system is made fresh and split in two portions. The Short Reaction Time Capacity Test is run on one portion after standing 24 hours on the bench at room temperature. Then the same test is run on the other portion after standing 72 hours on the bench at room temperature. The two measured capacities are compared to see if the product degrades in storage. Importantly, some scavengers lose activity with time due to secondary reactions and re-equilibrations that degrade their active form.
Table 5 compares different alkyl substituents on glyoxy alkyl diaminols. These compounds were prepared by reacting one mole of glyoxal, as a 40% aqueous solution, with 2.1 moles of various primary amines in a sufficient amount of MeOH to keep the product from separating into an aqueous layer and a non-aqueous layer. For each amine substituent: methyl (Me), ethyl (Et), normal-propyl (n-Pr), iso-propyl (i-Pr), and iso-propanol [1-propan-2-ol] (i-PrOH), the presence or absence of alpha branching on that substituent is noted. The weight ratios of the diaminols, water, and MeOH, are listed, along with their equivalent weights (Eq. Wt.) and the total equivalents per 20 g test (Eq/test). To measure the product stability, the Storage Capacity Loss between 24 and 72 hours was determined. As described earlier, a fresh sample of the scavenger system is split in two portions. The Short Reaction Time Capacity Test is run on one portion after standing 24 hours on the bench at room temperature. Then the same test is run on the other portion after standing 72 hours on the bench at room temperature. Both the 24-hr and 72-hr capacities (Min to FD and BT) and molar capacities (Min/Eq FD and BT) are listed in the table with the percent capacity loss for each substituent calculated below it. […] The others lost 34% to 77% of their scavenging capacity in 48 hours (72-24), presumably due to secondary reactions and re-equilibrations that degraded their active form. In this system employing only methanol, all of these compositions failed both the Hot Spray Fouling Test and the Spent Water Flowability Test. Two of them, the iso-propylamine [propan-2-amine] and the iso-propanolamine [1-aminopropan-2-ol] passed the Spent Solids Fouling Test.

[4] = Solution Homogeneity Test; type: physicochemical; details: Table 5; glyoxy alkyl diaminol in water and MeOH only
From the text: In one aspect, as two-phase reaction products are problematic, scavenger system homogeneity is desired. The two phases could be emulsified or otherwise finely dispersed, but in practice, even fine, seemingly stable dispersions eventually separate or stratify in extended storage or critical use and are not robust enough for practical use. They are not allowed, for example, to be fed through capillaries for fear of plugging them. In this pass/fail test, a sample is held up for visual inspection in a backlit clear vial. A clear, single-phase, homogeneous solution is a pass. Anything else is a fail.

[5] = Eq/test Triazine 0.068, GIDAc 0.185, GIDA 0.076
[6] = Triazine 7.50 g + 12.50 g water, GIDAc 13.00 g as GID + 7.00 g MeOH, GIDA 6.68 g as GID, 3.32 g water, 8.00 g MeOH, 2.00 g BuOH
[7] = 72-24 Hrs storage at room temperature
[8] = Sample Age 24 Hrs at room temperature
[9] = Sample Age 72 Hrs at room temperature

CC(C)NC(O)C(O)NC(C)C (stereo not drawn) [GIDA, 1,2-bis[(propan-2-yl)amino]ethane-1,2-diol]
Min/Eq BT [1, 5]: 805 Min/Eq | Min/Eq FD [1, 5]: 607 Min/Eq | Min to BT [1, 6]: 61 min | Min to FD [1, 6]: 46 min | H2S removal on a pound-per-pound basis ([2]; compared with the triazine-based scavenging system): significantly higher H2S removal | employable in scavenging H2S from natural gas ([2]; natural gas production facility): employable | BT Capacity Loss [3, 7]: −2% | FD Capacity Loss [3, 7]: 0% | Min/Eq BT ([3]; Sample Age 24 Hrs): 528 Min/Eq | Min/Eq FD ([3]; Sample Age 24 Hrs): 409 Min/Eq | Min to BT [3, 8]: 40 min | Min to FD [3, 8]: 31 min | Min/Eq BT ([3]; Sample Age 72 Hrs): 541 Min/Eq | Min/Eq FD ([3]; Sample Age 72 Hrs): 409 Min/Eq | Min to BT [3, 9]: 41 min | Min to FD [3, 9]: 31 min | loss of scavenging capacity (degradation) in storage ([3]; in 48 hours (72-24), room temperature): no degradation | Solution Homogeneity [4]: Pass
